Measurements: PubChem BioAssay (NCI)
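Following 48 hours of exposure in 96-well plates, responses at five concentrations were used to interpolate endpoints linearly. GI50 is the concentration that inhibits growth by half. The concentration for full growth arrest is given as TGI.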

Assays:
Assay in all cases: inhibition of tumour cell growth, NCI panel, 48 h
OVCAR-3 ovarian = system: OVCAR-3 ovarian
CAKI-1 renal = system: CAKI-1 renal
OVCAR-4 ovarian = system: OVCAR-4 ovarian
UACC-257 melanoma = system: UACC-257 melanoma
SNB-19 CNS = system: SNB-19 CNS
MDA-MB-435 = system: MDA-MB-435
DU-145 prostate = system: DU-145 prostate
KM12 colon = system: KM12 colon
HOP-62 NSCLC = system: HOP-62 NSCLC
CCRF-CEM leukemia = system: CCRF-CEM leukemia
MALME-3M melanoma = system: MALME-3M melanoma
T-47D breast = system: T-47D breast
SF-295 CNS = system: SF-295 CNS
IGROV1 ovarian = system: IGROV1 ovarian
A498 renal = system: A498 renal
PC-3 prostate = system: PC-3 prostate
HL-60(TB) leukemia = system: HL-60(TB) leukemia
SN12C renal = system: SN12C renal
HT29 colon = system: HT29 colon
RXF 393 renal = system: RXF 393 renal
786-0 renal = system: 786-0 renal
MOLT-4 leukemia = system: MOLT-4 leukemia
A549 NSCLC = system: A549 NSCLC
U251 CNS = system: U251 CNS
UO-31 renal = system: UO-31 renal
SK-MEL-2 melanoma = system: SK-MEL-2 melanoma
SK-OV-3 ovarian = system: SK-OV-3 ovarian
MCF7 breast = system: MCF7 breast
SF-539 CNS = system: SF-539 CNS
HOP-92 NSCLC = system: HOP-92 NSCLC
SF-268 CNS = system: SF-268 CNS
OVCAR-5 ovarian = system: OVCAR-5 ovarian
OVCAR-8 ovarian = system: OVCAR-8 ovarian
BT-549 breast = system: BT-549 breast
SW-620 colon = system: SW-620 colon
HCT-15 colon = system: HCT-15 colon
MDA-MB-231 breast = system: MDA-MB-231 breast
COLO 205 colon = system: COLO 205 colon
LOX IMVI melanoma = system: LOX IMVI melanoma
NCI-H226 lung = system: NCI-H226 lung
SK-MEL-28 melanoma = system: SK-MEL-28 melanoma
HS 578T breast = system: HS 578T breast
UACC-62 melanoma = system: UACC-62 melanoma
HCC-2998 colon = system: HCC-2998 colon
SK-MEL-5 melanoma = system: SK-MEL-5 melanoma
K-562 leukemia = system: K-562 leukemia
NCI-H522 lung = system: NCI-H522 lung
TK-10 renal = system: TK-10 renal
M14 melanoma = system: M14 melanoma
RPMI-8226 leukemia = system: RPMI-8226 leukemia
HCT-116 colon = system: HCT-116 colon
NCI-H23 lung = system: NCI-H23 lung
NCI-H460 lung = system: NCI-H460 lung
ACHN renal = system: ACHN renal
SNB-75 CNS = system: SNB-75 CNS
SR leukemia = system: SR leukemia
NCI/ADR-RES ovarian = system: NCI/ADR-RES ovarian

Nc1c(C(=O)Nc2cccc(C(F)(F)F)c2)sc2nc3c(cc12)C(O)CCC3 (centres undefined)
GI50 (OVCAR-3 ovarian): 4.27 µM | TGI (OVCAR-3 ovarian): > 49.3 µM | GI50 (CAKI-1 renal): 9.52 µM | TGI (CAKI-1 renal): > 100 µM | GI50 (OVCAR-4 ovarian): 3.46 µM | TGI (OVCAR-4 ovarian): > 46.6 µM | GI50 (UACC-257 melanoma): > 26.2 µM | TGI (UACC-257 melanoma): > 100 µM | GI50 (SNB-19 CNS): 14.4 µM | TGI (SNB-19 CNS): > 100 µM | GI50 (MDA-MB-435): 0.322 µM | TGI (MDA-MB-435): 1.65 µM | GI50 (DU-145 prostate): 5.44 µM | TGI (DU-145 prostate): > 57.9 µM | GI50 (KM12 colon): 3.28 µM | TGI (KM12 colon): > 100 µM | GI50 (HOP-62 NSCLC): 6.82 µM | TGI (HOP-62 NSCLC): 39.4 µM | GI50 (CCRF-CEM leukemia): 3.4 µM | TGI (CCRF-CEM leukemia): > 100 µM | GI50 (MALME-3M melanoma): 6.72 µM | TGI (MALME-3M melanoma): > 68 µM | GI50 (T-47D breast): 8.69 µM | TGI (T-47D breast): 66.8 µM | GI50 (SF-295 CNS): 3.07 µM | TGI (SF-295 CNS): 38.4 µM | GI50 (IGROV1 ovarian): 14.1 µM | TGI (IGROV1 ovarian): > 100 µM | GI50 (A498 renal): 0.872 µM | TGI (A498 renal): 27.7 µM | GI50 (PC-3 prostate): 4.02 µM | TGI (PC-3 prostate): 28.4 µM | GI50 (HL-60(TB) leukemia): 3.22 µM | TGI (HL-60(TB) leukemia): > 100 µM | GI50 (SN12C renal): 11.1 µM | TGI (SN12C renal): > 100 µM | GI50 (HT29 colon): 3.35 µM | TGI (HT29 colon): > 100 µM | GI50 (RXF 393 renal): 5.65 µM | TGI (RXF 393 renal): 50.8 µM | GI50 (786-0 renal): 13.7 µM | TGI (786-0 renal): 44.8 µM | GI50 (MOLT-4 leukemia): 6.7 µM | TGI (MOLT-4 leukemia): > 100 µM | GI50 (A549 NSCLC): 6.85 µM | TGI (A549 NSCLC): > 79.4 µM | GI50 (U251 CNS): 6.05 µM | TGI (U251 CNS): 37.6 µM | GI50 (UO-31 renal): 32.2 µM | TGI (UO-31 renal): > 100 µM | GI50 (SK-MEL-2 melanoma): 6.69 µM | TGI (SK-MEL-2 melanoma): 56.4 µM | GI50 (SK-OV-3 ovarian): 15.3 µM | TGI (SK-OV-3 ovarian): > 100 µM | GI50 (MCF7 breast): 1.39 µM | TGI (MCF7 breast): > 100 µM | GI50 (SF-539 CNS): 4 µM | TGI (SF-539 CNS): > 41.9 µM | GI50 (HOP-92 NSCLC): 3.31 µM | TGI (HOP-92 NSCLC): 25.6 µM | GI50 (SF-268 CNS): 6.07 µM | TGI (SF-268 CNS): > 67.1 µM | GI50 (OVCAR-5 ovarian): > 50 µM | TGI (OVCAR-5 ovarian): > 100 µM | GI50 (OVCAR-8 ovarian): 9.66 µM | TGI (OVCAR-8 ovarian): > 100 µM | GI50 (BT-549 breast): 7.27 µM | TGI (BT-549 breast): > 100 µM | GI50 (SW-620 colon): 2.73 µM | TGI (SW-620 colon): > 100 µM | GI50 (HCT-15 colon): 1.93 µM | TGI (HCT-15 colon): > 100 µM | GI50 (MDA-MB-231 breast): 12.2 µM | TGI (MDA-MB-231 breast): > 100 µM | GI50 (COLO 205 colon): 3.79 µM | TGI (COLO 205 colon): > 100 µM | GI50 (LOX IMVI melanoma): 5.68 µM | TGI (LOX IMVI melanoma): > 100 µM | GI50 (NCI-H226 lung): 10.8 µM | TGI (NCI-H226 lung): > 95.5 µM | GI50 (SK-MEL-28 melanoma): 6.42 µM | TGI (SK-MEL-28 melanoma): > 100 µM | GI50 (HS 578T breast): 6.23 µM | TGI (HS 578T breast): 96.9 µM | GI50 (UACC-62 melanoma): 3.2 µM | TGI (UACC-62 melanoma): > 100 µM | GI50 (HCC-2998 colon): > 61.2 µM | TGI (HCC-2998 colon): > 100 µM | GI50 (SK-MEL-5 melanoma): 3.59 µM | TGI (SK-MEL-5 melanoma): > 81.6 µM | GI50 (K-562 leukemia): 0.703 µM | TGI (K-562 leukemia): > 100 µM | GI50 (NCI-H522 lung): 12.7 µM | TGI (NCI-H522 lung): > 100 µM | GI50 (TK-10 renal): 11.8 µM | TGI (TK-10 renal): 50.2 µM | GI50 (M14 melanoma): 3.18 µM | TGI (M14 melanoma): 99.5 µM | GI50 (RPMI-8226 leukemia): 4.26 µM | TGI (RPMI-8226 leukemia): > 100 µM | GI50 (HCT-116 colon): 3.02 µM | TGI (HCT-116 colon): > 100 µM | GI50 (NCI-H23 lung): 15.2 µM | TGI (NCI-H23 lung): > 100 µM | GI50 (NCI-H460 lung): 4.55 µM | TGI (NCI-H460 lung): > 100 µM | GI50 (ACHN renal): 10.1 µM | TGI (ACHN renal): > 68.4 µM | GI50 (SNB-75 CNS): 3.47 µM | TGI (SNB-75 CNS): 18.1 µM | GI50 (SR leukemia): 0.61 µM | TGI (SR leukemia): > 88.1 µM | GI50 (NCI/ADR-RES ovarian): 6.14 µM | TGI (NCI/ADR-RES ovarian): > 100 µM
